According to PMC9597602, “Metal Complexes as Antifungals? From a Crowd-Sourced Compound Library to the First In Vivo Experiments” (JACS Au, 2022):

Tests used:
[1] = system: Candida albicans ATCC 90028 NCCLS11; assay: Antifungal MIC assay; format: cell-based; conditions: initial CO-ADD dose-response screening; ≥80% growth inhibition
Experimental: For the fungal assays, both fungi (yeast) strains were cultured for 3 days on Yeast Extract-Peptone Dextrose (YPD; Becton Dickinson 242720) agar at 30 °C. A yeast suspension of 1 × 10^6 to 5 × 10^6 CFU/mL (as determined by OD530) was prepared from five colonies from the agar plates, subsequently diluted with Yeast Nitrogen Base media (YNB; Becton Dickinson 233520), and added to each well of the compound containing plates (384-well plates, NBS; Corning CLS3640), giving a final cell density of 2.5 × 10^3 CFU/mL and a total volume of 50 μL. Plates were covered and incubated at 35 °C for 36 h without shaking. […] […], equivalent to ″optically clear-to-slightly hazy″ or MIC score of 0–1 as per CLSI guidelines M27 Reference Method for Broth Dilution Antifungal Susceptibility Testing of Yeasts. […] Fluconazole (Sigma F8929) was used as internal control on each plate for all strains. All compounds were tested as two technical replicates in two to four independent biological assays, n = 4–8 final data.

[2] = system: Cryptococcus neoformans H99 ATCC 208821 type strain; assay: Antifungal MIC assay; format: cell-based; conditions: initial CO-ADD dose-response screening; ≥80% growth inhibition
Experimental: For the fungal assays, both fungi (yeast) strains were cultured for 3 days on Yeast Extract-Peptone Dextrose (YPD; Becton Dickinson 242720) agar at 30 °C. A yeast suspension of 1 × 10^6 to 5 × 10^6 CFU/mL (as determined by OD530) was prepared from five colonies from the agar plates, subsequently diluted with Yeast Nitrogen Base media (YNB; Becton Dickinson 233520), and added to each well of the compound containing plates (384-well plates, NBS; Corning CLS3640), giving a final cell density of 2.5 × 10^3 CFU/mL and a total volume of 50 μL. Plates were covered and incubated at 35 °C for 36 h without shaking. […] MIC values were recorded as the lowest concentration at which the growth was inhibited by ≥80%, equivalent to ″optically clear-to-slightly hazy″ or MIC score of 0–1 as per CLSI guidelines M27 Reference Method for Broth Dilution Antifungal Susceptibility Testing of Yeasts. […] Fluconazole (Sigma F8929) was used as internal control on each plate for all strains. All compounds were tested as two technical replicates in two to four independent biological assays, n = 4–8 final data.

[3] = system: HEK-293 human embryonic kidney cells ATCC CRL-1573; conditions: initial CO-ADD screening, 20 h; for CC50: read-out: HEK CC50
Experimental: The cells were incubated together with the compounds for 20 h at 37 °C in 5% CO2. […] Tamoxifen (Sigma T5648) was used as internal control on each plate.

[4] = system: human red blood cells; format: cell-based; conditions: initial CO-ADD screening, 1 h; 10% hemolysis
Experimental: Human whole blood (Australian Red Cross) was washed three times with 3 vol of 0.9% NaCl and resuspended in a concentration of 0.5 × 10^8 cells/mL, determined by a manual cell count in a Neubauer hemocytometer. […] After incubation, the plates were centrifuged at 1000g for 10 min to pellet cells and debris; 25 μL of the supernatant was then transferred to reading plates (384-well, polystyrene plated (PS), Corning CLS3680), with hemolysis determined by measuring the supernatant absorbance at […] (OD405) using cells without inhibitors as negative control and cells with 1% Triton X-100 (Sigma T8787) as positive control. […] Melittin (Sigma M2272) was used as internal control on each plate.

[5] = system: Escherichia coli ATCC 25922 FDA control strain; assay: CO-ADD antibacterial MIC assay; format: cell-based; conditions: initial CO-ADD dose-response screening; ≥80% growth inhibition
Experimental: (§1) For the all the bacterial assays, each bacterial strain was cultured in cation-adjusted Mueller Hinton broth (CAMHB; Bacto Laboratories 212322) at 37 °C overnight. A sample of each culture was then diluted 40-fold in fresh CAMHB and incubated at 37 °C for 1.5–3 h. The resultant mid-log phase cultures were diluted with CAMHB (CFU/mL measured by OD600) and then added to each well of the compound-containing plates (384-well non-binding surface (NBS) plates; Corning CLS3640), giving a cell density of 5 × 10^5 CFU/mL and a total volume of 50 μL. Plates were covered and incubated at 37 °C for 18 h without shaking. Inhibition of bacterial growth was determined by measuring the absorbance at 600 nm (OD600) using media only as negative control and bacteria without inhibitors as positive control. MIC values were determined as the lowest concentration at which the growth was inhibited by ≥80% (equivalent to no visible growth by the eye). Colistin sulfate (Sigma C4461) and vancomycin HCl (Sigma 861987) were used as internal controls on each plate for Gram-negative and Gram-positive bacteria, respectively. All compounds were tested as two technical replicates in two independent biological assays, n = 4 final data.

[6] = system: Acinetobacter baumannii ATCC 19606 type strain; assay: CO-ADD antibacterial MIC assay; format: cell-based; conditions: initial CO-ADD dose-response screening; ≥80% growth inhibition
Experimental: as §1

[7] = system: Pseudomonas aeruginosa ATCC 27853 QC control strain; assay: CO-ADD antibacterial MIC assay; format: cell-based; conditions: initial CO-ADD dose-response screening; ≥80% growth inhibition
Experimental: as §1

[8] = system: methicillin-resistant Staphylococcus aureus ATCC 43300; assay: CO-ADD antibacterial MIC assay; format: cell-based; conditions: initial CO-ADD dose-response screening; ≥80% growth inhibition
Experimental: as §1

SMILES | MIC Ca [1] | MIC Cn [2] | HEK CC50 [3] | RBC HC10 [4] | MIC Ec [5] | MIC Ab [6] | MIC Pa [7] | MIC MRSA (Sa) [8] | CC50 [3]
O=C([O][Ag])c1ccc(N2N=C(/C=C/c3ccccc3)CC2c2ccccc2)cc1.O=C([O][Ag])c1ccc(N2N=C(/C=C/c3ccccc3)CC2c2ccccc2)cc1 (racemic) [Ag3] | 16 µg/mL | 16 µg/mL | > 32 µg/mL | > 32 µg/mL | > 32 µg/mL | > 32 µg/mL | > 32 µg/mL | > 32 µg/mL | 
O=C([O][Eu]([O]C(=O)c1ccccc1F)[O]C(=O)c1ccccc1F)c1ccccc1F.c1ccc(-c2ccnc3c2ccc2c(-c4ccccc4)ccnc23)cc1 [Eu-S3] | 20 µM | 5 µM |  | > 20 µM | > 20 µM | > 20 µM | > 20 µM | 10 µM | 14.7 µM
O=C([O][Eu]([O]C(=O)c1ccc(F)cc1F)[O]C(=O)c1ccc(F)cc1F)c1ccc(F)cc1F.c1cnc2c(c1)ccc1cccnc12 [Eu-S5] | > 20 µM | 20 µM |  | 0.5 µM | > 20 µM | > 20 µM | > 20 µM | > 20 µM | 13.6 µM
O=C([O][Eu]([O]C(=O)c1cc(F)ccc1F)[O]C(=O)c1cc(F)ccc1F)c1cc(F)ccc1F.c1ccc(-c2ccnc3c2ccc2c(-c4ccccc4)ccnc23)cc1 [Eu-S1] | > 20 µM | 5 µM |  | > 20 µM | > 20 µM | > 20 µM | > 20 µM | 10 µM | > 20 µM
CC1=CC=CC2=C(c3ccccc3)[C](=[Au]([Cl])([Cl])[Cl])C(c3ccccc3)(c3cccc(C)n3)N12 (centres unmarked) [Au-S13] | 2 µg/mL | <= 0.25 μg/mL | > 32 µg/mL | 19.3 µg/mL | 16 µg/mL | 32 µg/mL | > 32 µg/mL | <= 0.25 μg/mL | 
O=C([O][Eu]([O]C(=O)c1ccccc1F)[O]C(=O)c1ccccc1F)c1ccccc1F.c1cnc2c(c1)ccc1cccnc12 [Eu-S6] | 20 µM | 20 µM |  | > 20 µM | > 20 µM | > 20 µM | > 20 µM | > 20 µM | 9.9 µM
Cc1cccc2[n+]1[Pd-2]([Cl])([Cl])[n+]1c(C)cccc1C(c1ccccc1)=C=C2c1ccccc1 [HM_C1] | 16 µg/mL | 1 µg/mL | 1.0 µg/mL | > 32 µg/mL | > 32 µg/mL | > 32 µg/mL | > 32 µg/mL | 2 µg/mL | 
O=C([O][Eu]([O]C(=O)c1ccc(F)cc1F)[O]C(=O)c1ccc(F)cc1F)c1ccc(F)cc1F.c1ccc(-c2ccnc3c2ccc2c(-c4ccccc4)ccnc23)cc1 [Eu-S2] | 10 µM | 0.625 µM |  | 0.7 µM | > 20 µM | > 20 µM | > 20 µM | 1.25 µM | 15.9 µM
Cc1cccc(C(=C=C(c2cccc(C)n2)C(C)(C)C)c2ccccc2)n1.[Cl][Pt]([Cl])([Cl])[Cl] [HM_C5] | 32 µg/mL | > 32 µg/mL | > 32 µg/mL | > 32 µg/mL | > 32 µg/mL | > 32 µg/mL | > 32 µg/mL | > 32 µg/mL | 
Cc1cccc2[n+]1[Au-]([Cl])([Cl])[n+]1c(C)cccc1C(C(C)(C)C)=C=C2c1ccccc1.[Cl-] [Au-S12] | 4 µg/mL | <= 0.25 μg/mL | > 32 µg/mL | <= 0.25 μg/mL | > 32 µg/mL | > 32 µg/mL | > 32 µg/mL | 16 µg/mL | 
